Laboratory results from patent US20060240048A1 (priority 2002, published 2006).

Molecular target: T1, human cannabinoid CB2 receptor (Homo sapiens, UniProt P34972)
T1 construct: expressed in transfected cells; host or cells: Saccharomyces cerevisiae strain MMY23
Test: Cannabinoid CB2 receptor agonist activity, yeast reporter assay (FDGlu fluorescence);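 on Emax: 100% equals maximal response of reference agonist HU210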
Format: cell-based
Settings: for Emax: read-out: efficacy value (Emax) at the cloned human cannabinoid CB2 receptor

T1 sequence (P34972 whole entry): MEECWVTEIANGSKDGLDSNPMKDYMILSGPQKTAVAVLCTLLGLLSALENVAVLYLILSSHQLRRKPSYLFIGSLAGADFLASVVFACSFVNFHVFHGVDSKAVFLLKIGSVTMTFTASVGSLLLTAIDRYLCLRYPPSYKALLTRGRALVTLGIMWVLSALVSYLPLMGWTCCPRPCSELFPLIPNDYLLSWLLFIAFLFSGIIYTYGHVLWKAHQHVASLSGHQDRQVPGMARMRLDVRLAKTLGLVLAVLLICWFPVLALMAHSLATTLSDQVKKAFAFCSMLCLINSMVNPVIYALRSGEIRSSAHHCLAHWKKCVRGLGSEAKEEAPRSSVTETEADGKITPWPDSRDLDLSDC

Structure (SMILES) | EC50 [nM] | Emax [%]
CC(C)c1cc(Nc2ccc(F)c(Cl)c2)ncc1C(=O)NCC1CCC1 [Example 254, 6-(3-Chloro-4-fluoro-phenylamino)-N-cyclobutylmethyl-4-isopropyl-nicotinamide] | < 300 | > 50
CC(C)c1cc(Nc2ccc(Br)cc2Cl)ncc1C(=O)NCC1CCC1 [Example 255, 6-(4-Bromo-2-chloro-phenylamino)-N-cyclobutylmethyl-4-isopropyl-nicotinamide] | < 300 | > 50
CC(C)c1cc(Nc2ccc(Cl)cc2Br)ncc1C(=O)NCC1CCC1 [Example 256, 6-(2-Bromo-4-chloro-phenylamino)-N-cyclobutylmethyl-4-isopropyl-nicotinamide] | < 300 | > 50
CC(C)c1cc(Nc2cccc(C(F)(F)F)c2F)ncc1C(=O)NCC1CCC1 [Example 257, N-cyclobutylmethyl-6-(2-fluoro-3-trifluoromethyl-phenylamino)-4-isopropyl-nicotinamide] | < 300 | > 50
Cc1cc(Cl)ccc1Nc1cc(C(C)C)c(C(=O)NCC2CCC2)cn1 [Example 258, 6-(4-Chloro-2-methyl-phenylamino)-N-cyclobutylmethyl-4-isopropyl-nicotinamide] | < 300 | > 50
CC(C)c1cc(Nc2ccc(C#N)cc2Cl)ncc1C(=O)NCC1CCC1 [Example 259, 6-(2-Chloro-4-cyano-phenylamino)-N-cyclobutylmethyl-4-isopropyl-nicotinamide] | < 300 | > 50
CC(C)c1cc(Nc2ccc(C#N)cc2F)ncc1C(=O)NCC1CCC1 [Example 260, 6-(4-Cyano-2-fluoro-phenylamino)-N-cyclobutylmethyl-4-isopropyl-nicotinamide] | < 300 | > 50
Cc1cc(C#N)ccc1Nc1cc(C(C)C)c(C(=O)NCC2CCC2)cn1 [Example 261, 6-(4-Cyano-2-methyl-phenylamino)-N-cyclobutylmethyl-4-isopropyl-nicotinamide] | < 300 | > 50
CC(C)c1cc(Nc2ccc(C(F)(F)F)cc2Cl)ncc1C(=O)NCC1CCC1 [Example 262, 6-(2-Chloro-4-trifluoromethyl-phenylamino)-N-cyclobutylmethyl-4-isopropyl-nicotinamide] | < 300 | > 50
CC(C)c1cc(Nc2cc(Cl)cc(Cl)c2)ncc1C(=O)NCC1CCC1 [Example 263, N-Cyclobutylmethyl-6-(3,5-dichloro-phenylamino)-4-isopropyl-nicotinamide] | < 300 | > 50
CC(C)c1cc(Nc2cc(Cl)ccc2Cl)ncc1C(=O)NCC1CCC1 [Example 264, N-Cyclobutylmethyl-6-(2,5-dichloro-phenylamino)-4-isopropyl-nicotinamide] | < 300 | > 50
CC(C)c1cc(Nc2cc(F)cc(F)c2)ncc1C(=O)NCC1CCC1 [Example 265, N-Cyclobutylmethyl-6-(3,5-difluoro-phenylamino)-4-isopropyl-nicotinamide] | < 300 | > 50
CC(C)c1cc(Nc2cc(Cl)ccc2F)ncc1C(=O)NCC1CCC1 [Example 266, 6-(5-Chloro-2-fluoro-phenylamino)-N-cyclobutylmethyl-4-isopropyl-nicotinamide] | < 300 | > 50
CC(C)c1cc(Nc2cc(F)ccc2Cl)ncc1C(=O)NCC1CCC1 [Example 267, 6-(2-Chloro-5-fluoro-phenylamino)-N-cyclobutytmethyl-4-isopropyl-nicotinamide] | < 300 | > 50
CC(C)CNC(=O)c1cnc(Nc2cccc(Cl)c2)cc1C(C)C [Example 268, 6-(3-Chloro-phenylamino)-N-isobutyl-4-isopropyl-nicotinamide] | – | > 50
CC(C)CNC(=O)c1cnc(Nc2cccc(C(F)(F)F)c2)cc1C(C)C [Example 269, N-Isobutyl-4-isopropyl-6-(3-trifluoromethyl-phenylamlno)-nicotinamide] | < 300 | > 50
CC(C)CNC(=O)c1cnc(Nc2ccc(Cl)c(Cl)c2)cc1C(C)C [Example 270, 6-(3,4-Dichloro-phenylamino)-N-isobutyl-4-isopropyl-nicotinamide] | < 300 | > 50

Structure (SMILES) | EC50 [nM] | Emax [%]
CC(C)CNC(=O)c1cnc(Nc2cccc(C(F)(F)F)c2F)cc1C(C)C [Example 271, 6-(2-Fluoro-3-trifluoromethyl-phenylamino)-N-isobutyl-4-isopropyl-nicotinamide] | < 300 | > 50
Cc1c(Br)cccc1Nc1cc(C(C)C)c(C(=O)NCC(C)C)cn1 [Example 272, 6-(3-Bromo-2-methyl-phenylamino)-N-isobutyl-4-isopropyl-nicotinamide] | < 300 | > 50
CC(C)CNC(=O)c1cnc(Nc2ccc(Cl)cc2Cl)cc1C(C)C [Example 273, 6-(2,4-Dichloro-phenylamtno)-N-isobutyl-4-isopropyl-nicotinamide] | < 300 | > 50
CC(C)CNC(=O)c1cnc(Nc2cc(F)ccc2Cl)cc1C(C)C [Example 274, 6-(2-Chloro-5-fluoro-phenylamino)-N-isobutyl-4-isopropyl-nicotinamide] | < 300 | > 50
CC(C)CNC(=O)c1cnc(Nc2cc(F)cc(F)c2)cc1C(C)C [Example 275, 6-(3,5-Difluoro-phenylamino)-N-isobutyl-4-isopropyl-nicotinamide] | < 300 | > 50
CC(C)CNC(=O)c1cnc(Nc2cc(Cl)ccc2F)cc1C(C)C [Example 276, 6-(5-Chloro-2-fluoro-phenylamino)-N-isobutyl-4-isopropyl-nicotinamide] | < 300 | > 50
CC(C)CNC(=O)c1cnc(Nc2cccc(Br)c2)cc1C(C)C [Example 277, 6-(3-Bromo-phenylamino)-N-isobutyl-4-isopropyl-nicotinamide] | < 300 | > 50
CC(C)c1cc(Nc2ccc(Cl)cc2Cl)ncc1C(=O)NCC1CCS(=O)(=O)C1 (centres unmarked) [Example 278, 6-(2,4-Dichloro-phenylamino)-N-(1,1-dioxo-tetrahydro-1/^6-thiophen-3-ylmethyl)-4-isopropyl-nicotinamide] | < 300 | > 50
CC(C)c1cc(Nc2ccc(Br)c(F)c2)ncc1C(=O)NCC1CCS(=O)(=O)C1 (centres unmarked) [Example 279, 6-(4-Bromo-3-fluoro-phenylamino)-N-(1,1-dioxo-tetrahydro-1/^6-thiophen-3-ylmethyl)-4-isopropyl-nicotinamide] | < 300 | > 50
CC(C)c1cc(Nc2ccc(OC(F)(F)F)cc2Br)ncc1C(=O)NCC1CCC1 [Example 291, 6-(2-Bromo-4-trifluoromethoxy-phenylamino)-N-cyclobutylmethyl-4-isopropyl-nicotinamide] | – | > 50
CC(C)c1cc(Nc2ccc(C#N)cc2F)ncc1C(=O)NCC1CCCC1 [Example 293, 6-(4-Cyano-2-fluoro-phenylamino)-N-cyclopentylmethyl-4-isopropyl-nicotinamide] | < 300 | > 50
CC(C)c1cc(Nc2ccc(Br)c(C(F)(F)F)c2)ncc1C(=O)NCC1CCOCC1 [Example 294, 6-(4-Bromo-3-trifluoromethyl-phenylamino)-4-isopropyl-N-(tetrahydropyran-4-ylmethyl)-nicotinamide] | – | > 50
CC(C)c1cc(Nc2ccc(F)c(C(F)(F)F)c2)ncc1C(=O)NCC1CCOCC1 [Example 295, 6-(4-Fluoro-3-trifluoromethyl-phenylamino)-4-isopropyl-N-(tetrahydropyran-4-ylmethyl)-nicotinamide] | < 300 | > 50
CC(C)c1cc(Nc2ccc(Br)c(Br)c2)ncc1C(=O)NCC1CCOCC1 [Example 296, 6-(3,4-Dibromo-phenylamino)-4-isopropyl-N-(tetrahydropyran-4-ylmethyl)-nicotinamide] | < 300 | > 50
CC(C)c1cc(Nc2ccc(Br)c(F)c2)ncc1C(=O)NCC1CCOCC1 [Example 297, 6-(4-Bromo-3-fluoro-phenylamino)-4-isopropyl-N-(tetrahydropyran-4-ylmethyl)-nicotinamide] | < 300 | > 50
Cc1cccc(Nc2cc(C(C)C)c(C(=O)NCC3CCOCC3)cn2)c1C#N [Example 303, 6-(2-Cyano-3-methyl-phenylamino)-4-isopropyl-N-(tetrahydropyran-4-ylmethyl)-nicotinamide] | – | > 50
